Measurements reported in PubChem BioAssay (NCI).
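GI50 is the concentration that inhibits growth by half. TGI: concentration producing complete growth inhibition.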

Experiments:
Assay in all cases: growth of human tumour cells (NCI), 384-well format
[1] = tested on: SK-MEL-5 melanoma
[2] = tested on: HCC-2998 colon
[3] = tested on: UACC-257 melanoma
[4] = tested on: SNB-75 CNS
[5] = tested on: HOP-92 NSCLC
[6] = tested on: EKVX NSCLC
[7] = tested on: SNB-19 CNS
[8] = tested on: SF-539 CNS
[9] = tested on: A549 NSCLC
[10] = tested on: MALME-3M melanoma
[11] = tested on: SW-620 colon
[12] = tested on: UO-31 renal
[13] = tested on: LOX IMVI melanoma
[14] = tested on: DU-145 prostate
[15] = tested on: COLO 205 colon
[16] = tested on: SN12C renal
[17] = tested on: U251 glioblastoma
[18] = tested on: IGROV1 ovarian
[19] = tested on: PC-3 prostate
[20] = tested on: OVCAR-4 ovarian
[21] = tested on: NCI-H322M lung
[22] = tested on: KM12 colon
[23] = tested on: NCI-H460 NSCLC
[24] = tested on: 786-0 renal
[25] = tested on: SK-OV-3 ovarian
[26] = tested on: MDA-MB-468 breast
[27] = tested on: HOP-62 NSCLC
[28] = tested on: OVCAR-5 ovarian
[29] = tested on: OVCAR-8 ovarian
[30] = tested on: SK-MEL-28 melanoma
[31] = tested on: MOLT-4 leukemia
[32] = tested on: SF-295 CNS
[33] = tested on: SF-268 CNS
[34] = tested on: TK-10 renal
[35] = tested on: HCT-116 colon
[36] = tested on: MCF7 breast
[37] = tested on: MDA-MB-231 breast
[38] = tested on: HL-60(TB) leukemia
[39] = tested on: UACC-62 melanoma
[40] = tested on: SR leukemia
[41] = tested on: CAKI-1 renal
[42] = tested on: M14 melanoma
[43] = tested on: HT29 colon
[44] = tested on: RXF 393 renal
[45] = tested on: MDA-MB-435 melanoma
[46] = tested on: BT-549 breast
[47] = tested on: T-47D breast
[48] = tested on: NCI-H226 lung
[49] = tested on: NCI/ADR-RES ovarian
[50] = tested on: ACHN renal
[51] = tested on: NCI-H23 lung
[52] = tested on: RPMI-8226 leukemia
[53] = tested on: A498 renal
[54] = tested on: HCT-15 colon
[55] = tested on: HS 578T breast
[56] = tested on: NCI-H522 lung
[57] = tested on: OVCAR-3 ovarian

With `CN(C)C/C=C/C(=O)Nc1cc2c(Nc3ccc(F)c(Cl)c3)ncnc2cc1O[C@H]1CCOC1` the GI50 [1] was 1020 nM, the TGI [1] was 2190 nM and the GI50 [2] was 1340 nM. It also gave a TGI [2] of 2810 nM, a GI50 [3] of 1330 nM and a TGI [3] of 2620 nM. The GI50 [4] was 429 nM, the TGI [4] was 2960 nM and the GI50 [5] was 499 nM. For the same molecule, the TGI [5] was 2510 nM, the GI50 [6] was < 10 nM and the TGI [6] was 2160 nM. The GI50 [7] was 1910 nM, the TGI [7] was 10.6 µM and the GI50 [8] was 1410 nM. The TGI [8] was 2780 nM, the GI50 [9] was 436 nM and the TGI [9] was 2330 nM. The GI50 [10] was 1420 nM, the TGI [10] was 2730 nM and the GI50 [11] was 1800 nM. The TGI [11] was 5.1 µM, the GI50 [12] was 184 nM and the TGI [12] was 10.7 µM. It also gave a GI50 [13] of 1050 nM, a TGI [13] of 2240 nM and a GI50 [14] of 383 nM. It also gave a TGI [14] of 3.61 µM, a GI50 [15] of 2080 nM and a TGI [15] of 10.3 µM. The GI50 [16] was 316 nM, the TGI [16] was 6.53 µM and the GI50 [17] was 1310 nM. The TGI [17] was 4.05 µM, the GI50 [18] was < 10 nM and the TGI [18] was 1090 nM. It also gave a GI50 [19] of 1570 nM, a TGI [19] of 3.58 µM and a GI50 [20] of 2050 nM. For the same molecule, the TGI [20] was 6.59 µM, the GI50 [21] was < 10 nM and the TGI [21] was 13.1 nM. The GI50 [22] was 1230 nM, the TGI [22] was 3.07 µM and the GI50 [23] was 1790 nM. For the same molecule, the TGI [23] was 3.8 µM, the GI50 [24] was 763 nM and the TGI [24] was 2190 nM. The GI50 [25] was 112 nM, the TGI [25] was 8.4 µM and the GI50 [26] was < 10 nM. For the same molecule, the GI50 [27] was 1910 nM, the TGI [27] was 5.05 µM and the GI50 [28] was 1050 nM. It also gave a TGI [28] of 7.64 µM, a GI50 [29] of 1200 nM and a TGI [29] of 2770 nM. The GI50 [30] was 1990 nM, the TGI [30] was 5.18 µM and the GI50 [31] was 232 nM. It also gave a TGI [31] of 1260 nM, a GI50 [32] of 3.93 µM and a TGI [32] of 14.6 µM. For the same molecule, the GI50 [33] was 1390 nM, the TGI [33] was 3.91 µM and the GI50 [34] was < 10 nM. For the same molecule, the TGI [34] was 11.2 µM, the GI50 [35] was 551 nM and the TGI [35] was 1950 nM. It also gave a GI50 [36] of 1220 nM, a TGI [36] of 2780 nM and a GI50 [37] of 386 nM. It also gave a TGI [37] of 1870 nM, a GI50 [38] of 340 nM and a TGI [38] of 1300 nM. For the same molecule, the GI50 [39] was 1370 nM, the TGI [39] was 2780 nM and the GI50 [40] was 1210 nM. It also gave a TGI [40] of 2450 nM, a GI50 [41] of 138 nM and a TGI [41] of 1570 nM. The GI50 [42] was 1310 nM, the TGI [42] was 2590 nM and the GI50 [43] was 2000 nM. For the same molecule, the TGI [43] was 11.4 µM, the GI50 [44] was 226 nM and the TGI [44] was 838 nM. For the same molecule, the GI50 [45] was 2010 nM, the TGI [45] was 9.46 µM and the GI50 [46] was 617 nM. It also gave a TGI [46] of 1920 nM, a GI50 [47] of 17.1 nM and a TGI [47] of 2540 nM. For the same molecule, the GI50 [48] was 907 nM, the TGI [48] was 2210 nM and the GI50 [49] was 1400 nM. The TGI [49] was 5.41 µM, the GI50 [50] was < 10 nM and the TGI [50] was 1420 nM. It also gave a GI50 [51] of 1320 nM, a TGI [51] of 2780 nM and a GI50 [52] of 1280 nM. The TGI [52] was 2550 nM, the GI50 [53] was 126 nM and the TGI [53] was 1540 nM. For the same molecule, the GI50 [54] was 627 nM, the TGI [54] was 2000 nM and the GI50 [55] was 1450 nM. The TGI [55] was 3.14 µM, the GI50 [56] was < 10 nM and the TGI [56] was 34.4 nM. For the same molecule, the GI50 [57] was 79.8 nM and the TGI [57] was 928 nM.
